Source: PubChem BioAssay (NCI)
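Grown in 96-well plates, cells were treated for 48 hours with each compound at five concentrations. Insufficient inhibition: endpoint recorded as highest concentration tested. Abbreviation: GI50, concentration required for 50% inhibition of growth. TGI: total growth inhibition.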

What was measured:
Experiment in all cases: DTP human tumour cell line panel, 48 h
HL-60(TB) leukemia = tested on: HL-60(TB) leukemia
OVCAR-3 ovarian = tested on: OVCAR-3 ovarian
UO-31 renal = tested on: UO-31 renal
786-0 renal = tested on: 786-0 renal
ACHN renal = tested on: ACHN renal
NCI-H522 lung = tested on: NCI-H522 lung
MDA-MB-231 breast = tested on: MDA-MB-231 breast
NCI-H460 lung = tested on: NCI-H460 lung
A549 NSCLC = tested on: A549 NSCLC
MCF7 breast = tested on: MCF7 breast

SMILES	GI50 (HL-60(TB) leukemia) [µM]	TGI (HL-60(TB) leukemia) [µM]	GI50 (OVCAR-3 ovarian) [µM]	TGI (OVCAR-3 ovarian) [µM]	GI50 (UO-31 renal) [µM]	TGI (UO-31 renal) [µM]	GI50 (786-0 renal) [µM]	TGI (786-0 renal) [µM]	GI50 (ACHN renal) [µM]	TGI (ACHN renal) [µM]	GI50 (NCI-H522 lung) [µM]	TGI (NCI-H522 lung) [µM]	GI50 (MDA-MB-231 breast) [µM]	TGI (MDA-MB-231 breast) [µM]	GI50 (NCI-H460 lung) [µM]	TGI (NCI-H460 lung) [µM]	GI50 (A549 NSCLC) [µM]	TGI (A549 NSCLC) [µM]	TGI (MCF7 breast) [µM]	GI50 (MCF7 breast) [µM]
N#C/C(=C/C=C/c1ccccc1)S(=O)c1ccccc1 (configuration not stated)	0.288	2.25	0.307	1.13	0.4	3.08	0.322	1.36	0.2	0.462	0.306	1.35	0.371	1.56	0.506	2.92	2.17	11.3		
CC(=O)NC1C(OCc2ccccc2)OC(COC(=O)CCCCCNc2ccc([N+](=O)[O-])c3[nH]c4ccc(O)cc4c(=O)c23)C(O)C1OC(C)C(=O)N[C@@H](C)C(=O)N[C@H](CCC(=O)OCc1ccccc1)C(N)=O (some centres not stated)		> 52.2		6.24				14.3		34.5		3.61				4.33		6.92		
C/C(=N\NS(=O)(=O)c1ccc(C)cc1)c1c(O)cc(C)oc1=O		> 100				> 100		> 100		> 100						> 100		> 100		
NC1=NC(c2ccccc2)CC(c2cc(Cl)cc(Br)c2O)=N1 (configuration not stated)		13.2		30.2		32.3		31.5		31.5		15.4				19.9		34.6	21.4	
COc1cc2ccc(/C(C)=N/OC(C)=O)cc2cc1OC				> 100		99.6		> 100		> 100		> 100				> 100		> 100		
C=CCCC(C)N(C(=O)OC(C)(C)C)S(=O)(=O)c1ccc(C)cc1 (configuration not stated)		> 100		> 100		> 100		> 100		> 100		> 100				> 100		> 100		
CCCC1C(=O)C(CC)Cc2c(OC)ccc(OC)c21 (configuration not stated)		> 100		> 100		> 100		> 100		> 100		> 100				> 100		> 100		
C[C@]12CC(C#N)C(=O)C(O)=C1CC[C@@H]1C2CC[C@@]2(C)C1CC[C@@H]2O (some centres not stated)		> 100		> 100		87.3		> 100		> 100						> 100		> 100		
O=C(O)CN(c1ccccc1)S(=O)(=O)c1ccc(Cl)cc1		> 100				> 100		> 100		> 100		> 100				> 100		> 100		
S=P(c1ccccc1)(c1ccccc1)C1(C2(P(=S)(c3ccccc3)c3ccccc3)CC2)CC1						> 100		> 100		> 100		> 100				> 100		> 100		
Cc1ccc(NC(=O)CC/C(CC(=O)c2ccc(Cl)cc2)=N\NC(=O)C(=O)NN)cc1C		> 100		> 100		> 100		> 100		> 100		> 100				> 100		> 100		
CC1(C)CCC2(C(=O)O)CC[C@]3(C)C(=CCC4C5(C)CC[C@H](OC6OC(C(=O)O)C(O)C(OC7OC(CO)C(O)C(O)C7O)C6OC6OC(CO)C(O)C(O)C6O)C(C)(C)C5CCC43C)C2C1 (some centres not stated)			> 100	> 100	63.5	> 100	> 100	> 100			38.4	> 100	45	> 100	> 100	> 100	> 100	> 100	> 100	53.5
COc1ccc(-c2csc(NC(=O)N3CCN(c4cc5c(cc4F)c(=O)c(C(=O)O)cn5C4CC4)CC3)n2)cc1			0.89	17.9	1.62	> 100	1.46	19.6	2.66	> 100			2.71	> 100	1.29	> 100	3.43	> 100	> 100	2.6
O=C(c1cc2c(C(F)(F)F)onc2c2ccccc12)C(F)(F)F		6.86		13.8		9.52		> 45.1		14		6.25				7.17		> 72.1		
CCN(CC)CCOC(=O)/C(=C/c1ccc(OC)cc1)c1cc(OC)c(OC)c(OC)c1		16.4		64.3		31.9		98.8		> 100		9.32				51.2		> 100		
Cc1[nH]c2ccccc2c1C1CC(=O)NC1=O (configuration not stated)		> 100		> 100		> 100		> 100		> 100						> 100		> 100		
CC1=C(/C=C/C2=CC(=C\C(=O)O)/CC(C3=C(C)CCCC3(C)C)C2)C(C)(C)CCC1 (configuration not stated)				27.1		22.5		28.4		22.2		22.7				27.8		19.6		
COc1cc([C@@H]2c3cc4c(cc3[C@@H](NCc3ccc(C#N)cc3)C3COC(=O)[C@@H]32)OCO4)cc(OC)c1O (some centres not stated)		0.771		5.51		4.34		2.32		1.55		2.83				1.77		1.54		
N#Cc1ccc(-c2nc3ccc(Cl)cc3[nH]2)cc1		> 100		> 100		> 100		> 100				> 100		> 100				> 100	> 100	
CC1=C2C(=O)C(C)(C)C=C2C(=O)[C@](C)(O)C12CC2		0.66		> 1		> 1		> 1		> 1		0.7				> 1		> 1		
C[C@@H](NC1CCC[C@@H]1O)c1ccccc1 (some centres not stated)		> 100		> 100		> 100		> 100		> 100						> 100		> 100		

SMILES	GI50 (HL-60(TB) leukemia) [µM]	TGI (HL-60(TB) leukemia) [µM]	GI50 (OVCAR-3 ovarian) [µM]	TGI (OVCAR-3 ovarian) [µM]	GI50 (UO-31 renal) [µM]	TGI (UO-31 renal) [µM]	GI50 (786-0 renal) [µM]	TGI (786-0 renal) [µM]	GI50 (ACHN renal) [µM]	TGI (ACHN renal) [µM]	GI50 (NCI-H522 lung) [µM]	TGI (NCI-H522 lung) [µM]	GI50 (MDA-MB-231 breast) [µM]	TGI (MDA-MB-231 breast) [µM]	GI50 (NCI-H460 lung) [µM]	TGI (NCI-H460 lung) [µM]	GI50 (A549 NSCLC) [µM]	TGI (A549 NSCLC) [µM]	TGI (MCF7 breast) [µM]	GI50 (MCF7 breast) [µM]
c1ccc2c(c1)nnn2CNc1ccc(N2CCOCC2)cc1		> 100		> 100		> 100		> 100		> 100		> 100				> 100		> 100		
Cc1ccc(C(=O)CCC2C(=O)CC(C)(C)CC2=O)cc1				> 100		> 100		> 100		> 100		34.4		> 100		> 100		> 100	> 100	
O=C(N/C(=C\c1ccc([N+](=O)[O-])cc1)c1nc2ccc(Cl)cc2[nH]1)c1ccccc1		48.5		52		33.5		53		66.8		27.8						74.8		
CC(C)Cc1ccc(C(C)/C=C2\CCC(CN3CCCC3)C2=O)cc1 (configuration not stated)		> 100		12.7		29.5		3.73		24.3		3.13				37.9		35		
COc1ccc(-c2nc(N)c3ncn(C4OC(CO)C(O)C4O)c3n2)cc1 (configuration not stated)		> 100		> 100				> 100		> 100		> 100		> 100		> 100		> 100	> 100	
CN(C)Cc1cccc(CN(C)C)[c]1[Sn]([Br])([c]1ccccc1)[c]1ccccc1	1.76	3.93	11.3	24.3	13.1	26.8	14.7	29	19.1	40.4			15.9	38.3	13.4	65.9	17	60.1	24.5	10.5
CCCCCCCC(=O)OCC1OC(n2cc(F)c(=O)[nH]c2=O)C(NC(=O)OCc2ccccc2)C(OC(=O)CCCCCCC)C1O (configuration not stated)		40.8		47.7		0.865		65.1		> 100		72				> 100		> 100		
COc1ccc(C(=O)C(Br)C(Br)C(=O)O)cc1 (configuration not stated)				57.4				97.6		> 100		34.9		> 100		> 100		> 100	> 100	
CC1Cc2c(N)nc(N3CCOCC3)nc2NC1=O (configuration not stated)		> 100		> 100		> 100		> 100		> 100		> 100				> 100		> 100		
CC(=O)O[C@H]1CCC2[C@@H]3CCC4Nc5c(cnn5-c5ccccc5)C[C@]4(C)C3CC[C@@]21C (some centres not stated)		32.9		46.2		22.9		67.5		48.1		29.7				42.1		68.7		
O=C1NC(=O)C(=O)C(c2nc3ccccc3s2)C1=O		> 100		> 100		> 100		> 100		> 100		> 100				> 100		> 100		
COc1cc2c(=O)n(CCCn3ccnc3)c3c4cc5c(cc4ccc3c2cc1OC)OCO5			0.344	> 100	0.262	> 100	1.93	> 100	0.278	1.36	0.324	17.1	1.38	> 100	0.293	> 100	1.96	> 100	> 100	0.0999
CCN(CC)C(=O)CNC(=O)OC(C)(C)C		> 100		> 100		> 100		> 100		> 100		> 100				> 100		> 100		
CC(C(=O)c1ccccc1)C1(O)C(=O)Nc2ccccc21 (configuration not stated)				> 100		> 100		> 100		> 100		> 100				> 100		> 100		
O=C(COc1ccc(Cl)cc1)N1N=C(c2ccc([N+](=O)[O-])o2)CC1(O)c1ccccc1 (configuration not stated)		12		17.2		23.6		20.7				38.6				23.1		28.8		
NCCCn1c2c(c3cc4c(cc3c1=O)OCO4)C(=O)c1ccccc1-2	1.48	2.93	0.564	1.27			1.49	2.88	0.119	1.22	1.92	4.39	1.45	2.88	2.06	4.11				
CC(Oc1ccc(OCC2CCCCC2)cc1)C(=O)O (configuration not stated)		> 100		> 100		> 100		> 100		> 100		> 100				> 100		> 100		
Oc1cccc(Cn2c(-c3cccc(O)c3O)nc3ccccc32)c1O			0.0683	0.76	12.8	> 100	1.86	14.1	2.57	11.8	7.88	49.1	0.92	7.71	3.59	16.3	14.1	40.9	13.8	1.44
CCOC(=O)CNC1C(NC(C)=O)C(OC)OC2COC(c3ccccc3)OC21 (configuration not stated)		> 100		> 100		> 100		> 100		> 100		> 100				> 100		> 100		
O=C1C(Cl)=C(Nc2cccc(O)c2)C(=O)N1c1cccc(Cl)c1			22.3	64.1	75.8	> 100	57.8	> 100	85.4	> 100	16.6	36.3	35.8	> 100	48.5	> 100	81.1	> 100	> 100	36
CC(C)c1cccc(C(C)C)c1N=C(N)C#N		> 65.3		> 100		> 100		> 61.3		> 100		> 100				> 62.5		> 61.1		
